Measurements taken from ChEMBL document CHEMBL3227984, “5-Substituted uracil arabinonucleosides as potential antiviral agents” (J Med Chem, 1979).

These compounds were tested on Vaccinia virus (assay: Antiviral activity against Vaccinia virus infected in primary rabbit kidney cells assessed as inhibition of virus-induced cytopathogenicity).
Assay type: functional, Orthopoxvirus vaccinia

| Structure (SMILES) | ID50 |
| --- | --- |
| O=c1[nH]c(=O)n([C@@H]2O[C@H](CO)[C@@H](O)[C@@H]2O)cc1O | >7.7 ×10⁻⁴ M |
| O=c1[nH]c(=O)n([C@@H]2O[C@H](CO)[C@@H](O)[C@@H]2O)cc1[N+](=O)[O-] | >6.9 ×10⁻⁴ M |
| N#Cc1cn([C@@H]2O[C@H](CO)[C@@H](O)[C@@H]2O)c(=O)[nH]c1=O | >3.7 ×10⁻⁴ M |
| Cc1cn([C@@H]2O[C@H](CO)[C@@H](O)[C@@H]2O)c(=O)[nH]c1=O | 3.9 ×10⁻⁶ M |
| O=c1ccn([C@@H]2O[C@H](CO)[C@@H](O)[C@@H]2O)c(=O)[nH]1 [ARAURIDINE] | 8.2 ×10⁻⁴ M |
